Measured values published in patent US10597388B2, “Pyridazinone herbicides” (FMC CORPORATION, priority 2014, dated 2020).

Key:
Assay type in all cases: in vivo
[1] = test system: oat, wild (wild oat, Avena fatua); assay: Test C greenhouse herbicide test, postemergence
Outline: (§1)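 Ratings are visual scores from 0 (no effect) to 100 (complete control), made against controls 13–15 d after treatment. Postemergence sprays were applied in the greenhouse to plants 2–18 cm tall (1- to 4-leaf stage) in peat-moss/vermiculite potting medium.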

[2] = test system: chickweed (common chickweed, Stellaria media); assay: Test C greenhouse herbicide test, postemergence
Outline: as §1

kochia (Kochia scoparia) = assay: Test C greenhouse herbicide test, postemergence
Outline: as §1

[3] = test system: pigweed (Amaranthus retroflexus); assay: Test C greenhouse herbicide test, pre- and postemergence
Outline: (§2)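 Each species was treated both before emergence, in a loam–sand soil mix, and after emergence, as 1- to 4-leaf seedlings in peat-based potting medium. Plants stayed in the greenhouse 13 to 15 d, then were scored from 0 (no effect) to 100 (complete control) relative to controls.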

[4] = test system: velvetleaf (Abutilon theophrasti); assay: as above
Outline: as §2

[5] = test system: ragweed (common ragweed, Ambrosia elatior); assay: as above
Outline: as §2

[6] = test system: nutsedge, yellow (yellow nutsedge, Cyperus esculentus); assay: as above
Outline: as §2

[7] = test system: ryegrass, Italian (Italian ryegrass, Lolium multiflorum); assay: as above
Outline: as §2

soybean (Glycine max) = assay: as above
Outline: as §2

[8] = test system: barnyardgrass (Echinochloa crus-galli); assay: as above
Outline: as §2

[9] = test system: blackgrass (Alopecurus myosuroides); assay: as above
Outline: as §2

[10] = test system: galium (catchweed bedstraw, Galium aparine); assay: as above
Outline: as §2

[11] = test system: blackgrass (Alopecurus myosuroides); assay: Test A greenhouse herbicide test, postemergence
Outline: (§3)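 Greenhouse postemergence test: formulated chemicals sprayed on one- to two-leaf plants (2 to 10 cm), grown in loam soil blended with sand. Injury assessed visually about 10 d later against untreated controls, scored 0 (no effect) to 100 (complete control).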

[12] = test system: galium (catchweed bedstraw, Galium aparine); assay: Test A greenhouse herbicide test, postemergence
Outline: as §3

[13] = Postemergence, 31 g ai/ha, 0 to 100 scale (0 no effect, 100 complete control)
[14] = Postemergence, 125 g ai/ha, scale 0 to 100, 0 is no effect, 100 is complete control
[15] = Postemergence, 250 g ai/ha, scale 0 to 100, 0 no effect, 100 complete control, 13 to 15 d
[16] = postemergence, 62 g ai/ha, scale 0 to 100, 0 no effect, 100 complete control
[17] = Preemergence, 31 g ai/ha, scale 0 to 100, 0 is no effect, 100 is complete control
[18] = Preemergence, 62 g ai/ha, scale 0 to 100, 0 is no effect, 100 is complete control
[19] = Preemergence, 125 g ai/ha, scale 0 to 100, 0 is no effect, 100 is complete control
[20] = Preemergence, 250 g ai/ha, scale 0 to 100, 0 no effect, 100 complete control
[21] = 125 g ai/ha, 0 to 100 scale where 0 is no effect and 100 is complete control
[22] = 500 g ai/ha, 0 to 100 scale, 0 is no effect, 100 is complete control

`COC(=O)Oc1c(C)nn(C)c(=O)c1-c1c(C)sc2ccc(C)cc12` [Compound 80] was tested, and the “Oat, Wild plant response rating” value [1, 13] was 90, the “Plant response rating, Oat, Wild” value [1, 14] was 90 and the “Plant response rating, Oat, Wild” value [1, 15] was 95. The “Oat, Wild plant response rating” value [1, 16] was 90, the “Chickweed plant response rating” value [2, 13] was 90 and the “Plant response rating, Chickweed” value [2, 14] was 95. The “Plant response rating, Chickweed” value [2, 15] was 98, the “Chickweed plant response rating” value [2, 16] was 95 and the “Kochia plant response rating” value (kochia (Kochia scoparia); [13]) was 90. For the same compound, the “Plant response rating, Kochia” value (kochia (Kochia scoparia); [14]) was 90, the “Plant response rating, Kochia” value (kochia (Kochia scoparia); [15]) was 90 and the “Kochia plant response rating” value (kochia (Kochia scoparia); [16]) was 90. For the same compound, the “Pigweed plant response rating” value [3, 13] was 85, the “Plant response rating, Pigweed” value [3, 14] was 95 and the “Plant response rating, Pigweed” value [3, 15] was 95. For the same compound, the “Plant response rating, Pigweed” value [3, 17] was 100, the “Plant response rating, Pigweed” value [3, 18] was 100 and the “Plant response rating, Pigweed” value [3, 19] was 100. For the same compound, the “Pigweed plant response rating” value [3, 20] was 100, the “Pigweed plant response rating” value [3, 16] was 90 and the “Velvetleaf plant response rating” value [4, 13] was 70. For the same compound, the “Plant response rating, Velvetleaf” value [4, 14] was 55, the “Plant response rating, Velvetleaf” value [4, 15] was 90 and the “Plant response rating, Velvetleaf” value [4, 17] was 55. The “Plant response rating, Velvetleaf” value [4, 18] was 85, the “Plant response rating, Velvetleaf” value [4, 19] was 90 and the “Velvetleaf plant response rating” value [4, 20] was 95. The “Velvetleaf plant response rating” value [4, 16] was 90, the “Ragweed plant response rating” value [5, 13] was 98 and the “Plant response rating, Ragweed” value [5, 14] was 98. For the same compound, the “Plant response rating, Ragweed” value [5, 15] was 98, the “Plant response rating, Ragweed” value [5, 17] was 90 and the “Plant response rating, Ragweed” value [5, 18] was 95. For the same compound, the “Plant response rating, Ragweed” value [5, 19] was 95, the “Ragweed plant response rating” value [5, 20] was 100 and the “Ragweed plant response rating” value [5, 16] was 90. For the same compound, the “Nutsedge, Yellow plant response rating” value [6, 13] was 65, the “Plant response rating, Nutsedge, Yellow” value [6, 14] was 85 and the “Plant response rating, Nutsedge, Yellow” value [6, 15] was 95. For the same compound, the “Plant response rating, Nutsedge, Yellow” value [6, 17] was 20, the “Plant response rating, Nutsedge, Yellow” value [6, 18] was 25 and the “Plant response rating, Nutsedge, Yellow” value [6, 19] was 80. The “Nutsedge, Yellow plant response rating” value [6, 20] was 80, the “Nutsedge, Yellow plant response rating” value [6, 16] was 80 and the “Ryegrass, Italian plant response rating” value [7, 13] was 80. For the same compound, the “Plant response rating, Ryegrass, Italian” value [7, 14] was 85, the “Plant response rating, Ryegrass, Italian” value [7, 15] was 85 and the “Plant response rating, Ryegrass, Italian” value [7, 17] was 35. The “Plant response rating, Ryegrass, Italian” value [7, 18] was 70, the “Plant response rating, Ryegrass, Italian” value [7, 19] was 90 and the “Ryegrass, Italian plant response rating” value [7, 20] was 90. The “Ryegrass, Italian plant response rating” value [7, 16] was 85, the “Soybean plant response rating” value (soybean (Glycine max); [13]) was 0 and the “Plant response rating, Soybean” value (soybean (Glycine max); [14]) was 5. The “Plant response rating, Soybean” value (soybean (Glycine max); [15]) was 20, the “Plant response rating, Soybean” value (soybean (Glycine max); [17]) was 0 and the “Plant response rating, Soybean” value (soybean (Glycine max); [18]) was 0. For the same compound, the “Plant response rating, Soybean” value (soybean (Glycine max); [19]) was 0, the “Soybean plant response rating” value (soybean (Glycine max); [20]) was 0 and the “Soybean plant response rating” value (soybean (Glycine max); [16]) was 15. The “Barnyardgrass plant response rating” value [8, 13] was 25, the “Plant response rating, Barnyardgrass” value [8, 14] was 35 and the “Plant response rating, Barnyardgrass” value [8, 15] was 35. For the same compound, the “Plant response rating, Barnyardgrass” value [8, 17] was 10, the “Plant response rating, Barnyardgrass” value [8, 18] was 65 and the “Plant response rating, Barnyardgrass” value [8, 19] was 75. The “Barnyardgrass plant response rating” value [8, 20] was 85, the “Barnyardgrass plant response rating” value [8, 16] was 30 and the “Blackgrass plant response rating” value [9, 13] was 15. For the same compound, the “Plant response rating, Blackgrass” value [9, 14] was 40, the “Plant response rating, Blackgrass” value [9, 15] was 50 and the “Plant response rating, Blackgrass” value [9, 17] was 70. The “Plant response rating, Blackgrass” value [9, 18] was 80, the “Plant response rating, Blackgrass” value [9, 19] was 80 and the “Blackgrass plant response rating” value [9, 20] was 90. The “Blackgrass plant response rating” value [9, 16] was 35, the “Galium plant response rating” value [10, 13] was 90 and the “Plant response rating, Galium” value [10, 14] was 95. The “Plant response rating, Galium” value [10, 15] was 95, the “Plant response rating, Galium” value [10, 17] was 90 and the “Plant response rating, Galium” value [10, 18] was 95. For the same compound, the “Plant response rating, Galium” value [10, 19] was 95, the “Galium plant response rating” value [10, 20] was 95 and the “Galium plant response rating” value [10, 16] was 95. The “Plant response rating, Blackgrass” value [11, 21] was 80, the “Blackgrass plant response rating” value [11, 22] was 80 and the “Plant response rating, Galium” value [12, 21] was 90. For the same compound, the “Galium plant response rating” value [12, 22] was 90.
